# Values quoted from earlier work as cited in patent US20250333422A1, “AMORPHOUS BERBERINE WITH ENHANCED BIOAVAILABILITY” (Nature's Way Products, LLC, priority 2024, published 2025).
# Where a name gives a salt, the structure may show the parent alone.
# Legend:
# [1] = not given; remark: listed apart in the source
# [2] = berberine metabolites
Structure (SMILES),"biological activities for antioxidative, hepatoprotective, and hypolipidemic effects [2]",also measured
"COc1ccc2c(c1OC)CN1CCc3cc4c(cc3C1=C2)OCO4 [dhBB, dihydroberberine]",–,bioavailability of berberine versus an oral dosage of standard berberine: 5 times
"COc1ccc2cc3[n+](cc2c1OC)CCc1cc2c(cc1-3)OCO2 [Berberine, Berberine HCl]",–,"share of dose that goes into the lower bowel unabsorbed ([1]; oral dose): 99%; bioavailability ([1]; standard crystalline berberine, oral): < 1%"
COc1ccc2cc3[n+](cc2c1OC)CCc1cc(O)c(O)cc1-3 [demethyleneberberine],showed biological activities,–
COc1c(O)ccc2cc3[n+](cc12)CCc1cc2c(cc1-3)OCO2 [thalifendine],showed biological activities,–
COc1cc2c(cc1O)CC[n+]1cc3c(OC)c(OC)ccc3cc1-2 [jatrorrhizine],showed biological activities,–
COc1ccc2cc3[n+](cc2c1O)CCc1cc2c(cc1-3)OCO2 [berberrubine],showed biological activities,–
